Tests used:
Assay type in all cases: cell-based, human
033 T PDX cells = test: In vitro drug sensitivity assay (ATPlite cell viability, 6 days, sphere culture); settings: for IC50: Homo sapiens, primary culture in serum-free sphere conditions; for effect on 033 T cell proliferation (in words): in vitro drug screen
Method: (§1) Primary cultures of PDX cells in the serum-free sphere culture conditions were seeded in 384-well plates, at 500 cells per well. Two hours after plating, cells were treated with a drug library in three-fold and 10-point serial dilutions (n = 3, for each condition). Cells were incubated for 6 days at 37 °C, in a 5% CO2 humidified incubator, and the cell viability was analyzed using an adenosine triphosphate monitoring system based on firefly luciferase (ATPlite 1step; PerkinElmer, Waltham, MA, USA). […] The drugs were stored and diluted according to the manufacturer’s instructions. The tested concentrations for each drug were empirically derived, in order to investigate a clinically relevant spectrum of drug activities. IC50 values were calculated as an average of triplicate experiments using S+ Chip Analyzer (Samsung Electro-Mechanics Company, Ltd., Suwon, Korea). In order to investigate the effects of the treatment with targeted agents, signal transduction assays were performed using primarily cultured NSCLC PDX cells, which were maintained overnight in serum-free sphere culture conditions, without growth factors, incubated for 1 h with each inhibitor, and pulsed with original culture medium supplemented with bFGF/EGF/NRG/IGF for 15 min.

phosphorylation of MET = test: Signal transduction assay, western blot; settings: 033 T cells
Method: as §1

033 T cells [1] = test: Tumor sphere formation in 033 T cell cultures
Method: (§2) Xenograft tumor specimens were dissociated into single cells according to previously published protocol. Dissociated cells were cultured in Neurobasal medium-A, supplemented with N2 (×1/2; Life Technologies, Carlsbad, CA, USA), B27 (×1/2; GIBCO), basic fibroblast growth factor (bFGF; 25 ng/mL; R&D Systems, Minneapolis, MN, USA), EGF (25 ng/mL; R&D Systems, Minneapolis, MN, USA), neuregulin 1 (NRG; 10 ng/mL; R&D Systems, Minneapolis, MN, USA), and insulin-like growth factor 1 (IGF1; 100 ng/mL; R&D Systems, Minneapolis, MN, USA). Growth factors were supplemented every 3 days. When spheres appeared in the suspension culture, they were dissociated using StemPro Accutase (Life Technologies, Carlsbad, CA, USA), and reseeded in the suspension culture medium. Cells were grown in complete medium and treated with inhibitors 1 day after seeding. Five days later, the surviving cells were quantified by WST-1 staining (Roche Genentech, San Francisco, CA, USA).

033 T cells [2] = test: Cell proliferation time course of 033 T cells (WST-1); settings: from day 5 onward
Method: as §2

phosphorylation of STAT3 = test: Signal transduction assay, western blot; settings: 033 T cells
Method: (§3) Primary cultures of PDX cells in the serum-free sphere culture conditions were seeded in 384-well plates, at 500 cells per well. Two hours after plating, cells were treated with a drug library in three-fold and 10-point serial dilutions (n = 3, for each condition). Cells were incubated for 6 days at 37 °C, in a 5% CO2 humidified incubator, and the cell viability was analyzed using an adenosine triphosphate monitoring system based on firefly luciferase (ATPlite 1step; PerkinElmer, Waltham, MA, USA). The drug library was composed of 17 targeted agents that were included in the clinical guidelines or current clinical trials for the treatment of NSCLC (gefitinib, erlotinib, lapatinib, afatinib, neratinib, caneratinib, dacomitinib, infigratinib, vandetanib, sunitinib, imatinib, CI-1040, vemurafenib, palbociclib, crizotinib, sonidegib, buparlisib; all purchased from Selleckchem, Houston, TX, USA). The drugs were stored and diluted according to the manufacturer’s instructions. The tested concentrations for each drug were empirically derived, in order to investigate a clinically relevant spectrum of drug activities. IC50 values were calculated as an average of triplicate experiments using S+ Chip Analyzer (Samsung Electro-Mechanics Company, Ltd., Suwon, Korea). […]

[3] = system: phosphorylation of ERK1/2; test: Signal transduction assay, western blot; settings: 033 T cells
Method: as §3

[4] = resistant if IC50 > 1000 nmol/L

Compound | IC50 (033 T PDX cells; [4]) | effect on 033 T cell proliferation (in words) (033 T PDX cells) | further results
CN(C)C/C=C/C(=O)Nc1cc2c(Nc3ccc(F)c(Cl)c3)ncnc2cc1O[C@H]1CCOC1 [afatinib] | 971 nM |  | 
C[C@@H](Oc1cc(-c2cnn(C3CCNCC3)c2)cnc1N)c1c(Cl)ccc(F)c1Cl [crizotinib] | 691 nM |  | phosphorylation of MET (phosphorylation of MET): completely abolishing; tumor sphere formation (033 T cells [1]): impaired tumor sphere formation; cell proliferation (033 T cells [2]): significantly inhibited cell proliferation; phosphorylation of STAT3 (phosphorylation of STAT3): completely abolishing; phosphorylation of ERK1/2 [3]: completely abolishing
Nc1cc(C(F)(F)F)c(-c2cc(N3CCOCC3)nc(N3CCOCC3)n2)cn1 [buparlisib] | 507 nM |  | 
COc1cc2ncnc(Nc3ccc(F)c(Cl)c3)c2cc1OCCCN1CCOCC1 [gefitinib] |  | marked inhibitory effects | 
C=CC(=O)Nc1cc2c(Nc3ccc(F)c(Cl)c3)ncnc2cc1OCCCN1CCOCC1 [canertinib] | 80 nM | effective | 
CS(=O)(=O)CCNCc1ccc(-c2ccc3ncnc(Nc4ccc(OCc5cccc(F)c5)c(Cl)c4)c3c2)o1 [lapatinib] | 1560 nM |  | 
CCOc1cc2ncc(C#N)c(Nc3ccc(OCc4ccccn4)c(Cl)c3)c2cc1NC(=O)/C=C/CN(C)C [neratinib] |  | marked inhibitory effects | IC50 (033 T PDX cells; […]): 133 nM
C#Cc1cccc(Nc2ncnc3cc(OCCOC)c(OCCOC)cc23)c1 [erlotinib] |  |  | IC50 (033 T PDX cells; […]): 836 nM

— article PMC5557466, “Precision medicine approaches to lung adenocarcinoma with concomitant MET and HER2 amplification” (BMC Cancer, 2017)
